Test results: US20090082341A1 (SYNOSIA THERAPEUTICS, priority 2007, published 2009)
Entries after “also recorded” stand apart in the source; their conditions may differ.

Assays:
A2A receptors in the dog = biological target: T1, A2A receptors in the dog (Canis lupus familiaris, UniProt P11617); test: Radioligand binding assay, dog A2A receptor (striatal tissue); parameters: species or system dog (Beagle); settings: read-out: pKi, dog A2A receptor (converted)
T1 construct: the cortical (dA1) and striatal (dA2A) tissue was dissected and frozen; from tissue; host or cells: Beagle dog brain striatum, membranes

adenosine transporter = test: Selectivity radioligand binding panel, adenosine transporter; settings: at 10 μM
Text: See FIG. 22-25 for general procedures of binding assays. See FIG. 26-32 for experimental conditions of binding assays.
The specific ligand binding to the receptors is defined as the difference between the total binding and the nonspecific binding determined in the presence of an excess of unlabelled ligand.
Individual and mean values are presented in the results section. The IC50 values (concentration causing a half-maximal inhibition of control specific binding) and Hill coefficients (nH) were determined by non-linear regression analysis of the competition curves using Hill equation curve fitting.
The inhibition constants (Ki) were calculated from the Cheng Prusoff equation (Ki=IC50/(1+(L/KD)), where L=concentration of radioligand in the assay, and KD=affinity of the radioligand for the receptor).

human A1 receptor = biological target: T2, human A1 receptor (Homo sapiens, UniProt P30542); test: NECA-stimulated Ca2+ flux in hA1-Gα16-CHO cells (FLIPR); type: cell-based
T2 sequence (P30542 1-326): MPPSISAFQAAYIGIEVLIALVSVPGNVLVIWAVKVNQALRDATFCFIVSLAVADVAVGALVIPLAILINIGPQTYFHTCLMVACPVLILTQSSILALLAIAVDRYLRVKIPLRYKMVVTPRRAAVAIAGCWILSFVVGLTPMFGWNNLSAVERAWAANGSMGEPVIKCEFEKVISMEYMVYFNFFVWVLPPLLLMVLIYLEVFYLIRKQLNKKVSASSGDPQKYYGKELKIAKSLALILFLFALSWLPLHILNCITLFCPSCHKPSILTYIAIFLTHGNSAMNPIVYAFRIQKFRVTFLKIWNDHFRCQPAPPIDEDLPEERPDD
Procedure: The density of cells was sufficient to yield a confluent monolayer the next day. Hanks balanced salt solution, without phenol red, containing 20 mM HEPES (pH 7.3) and 2.5 mM probenecid (assay buffer) was prepared fresh for each experiment. […] The dye-loading buffer consisted of a final concentration of 2 μM Fluo-4-AM (dissolved in DMSO and pluronic acid) in assay buffer. […] Once dye-loaded, the cells were washed thoroughly on an Embla cell washer with the assay buffer to remove any unincorporated dye. Exactly 100 μl assay buffer was left in each well.
J. Pharm. […] The concentration of agonist that produced a half-maximal response is represented by the EC50 value, the logarithm of which yielded the pEC50 value.

male Sprague-Dawley rats = test: Differential-reinforcement-of-low-rate-30-seconds (DRL-30) test; type: in vivo, rat; settings: 3, 10 and 30 mg/kg po, 2 h before test
Text: The differential-reinforcement-of low-rate (DRL) test is used not only to assess the potential antidepressant properties of drugs but also their anxiolytic potential. Animals are trained to respond to a certain stimulus by pressing a lever. Typical antidepressants, such as TCAs, increase the time between responses, thereby decreasing the response rate. They also increase the number of reinforced responses i.e. repeated pressing of the lever at least 30 seconds after the initial pressing of the lever. Opposite effects are observed with atypical antidepressants such as nomifensine and with benzodiazepine-like anxiolytics.
The method follows that described by Richards J B, Seiden L S. A quantitative interresponse-time analysis of DRL performance differentiates similar effects of the antidepressant desipramine and the novel anxiolytic gepirone. J Exp Anal Behav. 1991; 56:173-192. Stephens D N, Voet B. Differential effects of anxiolytic and non-anxiolytic benzodiazepine receptor ligands on performance of a differential reinforcement of low rate (DRL) schedule. Behav Pharmacol. 1994; 5:4-14. Typical antidepressants increase the inter-response times, therefore decreasing the rate of responding. They also increase the number of reinforcements. Opposite effects are observed with benzodiazepine-like anxiolytics or with atypical antidepressants.
Male adult Sprague-Dawley rats (Charles River, France) weighing approximately 350 g were used. The animals were housed one per cage in Macrolon Type 3 cages (810 cm^2) with sawdust bedding and wood shavings. Animals had free access to tap water and restricted access (15 g per day) to standard laboratory chow (Ratte Alleinfutter, extrudat No 3436; Provimikliba Kaiseraugst, Switzerland). The animal quarters were maintained on a 12:12 hr light-dark cycle with light onset at 6 a.m. Room temperature (22±2° C.) and humidity (55-65%) were kept constant. The experimental procedures used received prior approval from the City of Basel Cantonal Animal Protection Committee based on adherence to federal and local regulations on animal maintenance and testing. […]

T1 sequence (P11617 whole entry): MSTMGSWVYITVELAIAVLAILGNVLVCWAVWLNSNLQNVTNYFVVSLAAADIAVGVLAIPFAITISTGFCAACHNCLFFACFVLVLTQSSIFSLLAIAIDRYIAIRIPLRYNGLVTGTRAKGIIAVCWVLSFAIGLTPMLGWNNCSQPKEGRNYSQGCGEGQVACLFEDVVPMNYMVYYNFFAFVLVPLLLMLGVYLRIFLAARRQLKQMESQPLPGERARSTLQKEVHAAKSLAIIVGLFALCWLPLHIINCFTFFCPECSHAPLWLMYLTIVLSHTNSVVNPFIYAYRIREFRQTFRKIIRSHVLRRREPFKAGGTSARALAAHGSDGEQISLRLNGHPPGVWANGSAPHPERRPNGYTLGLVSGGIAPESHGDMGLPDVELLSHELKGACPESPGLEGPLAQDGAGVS

## COc1ccc(N2CCOCC2)c2sc(NC(=O)N3CCC(C)(O)CC3)nc12 [4-hydroxy-4-methyl-piperidine-1-carboxylic acid (4-methoxy-7-morpholin-4-yl-benzothiazol-2-yl)-amide]
A2A receptors in the dog
  Ki: 0.0126 µM
Adenosine transporter
  displacement at the adenosine transporter: 55%
Human A1 receptor
  Hill slope, hA1 Ca2+ flux: 0.7
Human A1 receptor; read-out: pIC50, antagonism of NECA-stimulated Ca2+ flux, hA1 (converted)
  IC50: > 10 µM
Male Sprague-Dawley rats
  mean inter-response time (time between responses): decreased
  number of reinforcements (reinforced responses): tended to decrease
  total number of responses: dose-dependent increase; also recorded: significantly and dose-dependently increased
